The values that follow come from patent US20250195660A1, “INACTIVATING BACTERIA WITH ELECTRIC PULSES AND ANTIBIOTICS” (Purdue Research Foundation, priority 2018, published 2025).

Assay [1] concerns Stapphylococcus aureus (gram positive bacterium number 25923). The experiment in a line: Inactivation of S. aureus by 300 ns electric pulses combined with antibiotic (CFU plating). The format is cell-based, Staphylococcus aureus. On the procedure: Equipment. Used was a capacitor based Blumlein pulse generator with a spark gap switch to produce trapezoidal EPs of 300 ns duration at the peak with rise and fall times close to 50 ns. Multiple pulses were delivered at a frequency of 1 Hz.
The samples were treated in a standard electroporation cuvette (Dot Scientific) whose resistance must match the pulse generator's impedance to prevent pulse reflection. Utilizing Luria broth, containing 0.5% NaCl, in a cuvette with gap distances of 1 mm and 2 mm yielded the best electrical match (no reflections in the measured signal). Used were 2 mm cuvettes to ensure consistency between tests, and the applied voltage was measured across the cuvette using a LeCroy PPE 20 kV high voltage probe with a 1000:1 attenuation feeding into a TeleDyne LeCroy Waverunner 6 Zi Oscilloscope capable of measuring signals up to 4 GHz. Assuming a purely parallel plate geometry with minimal fringing gives an electric field E=V/d, where V is the peak voltage of the applied pulse and d is the gap distance.
Sample Preparation. These experiments assessed Stapphylococcus aureus (gram positive bacterium number 25923) from ATCC and Esherichia coli (gram negative bacterium number 25922) inoculated in luria broth (LB Broth Lennox, powder microbial growth medium. SIGMA-ALDRICH) by taking 8 mL of broth in a 50 mL sterile conical tube and incubating in a shaker for 20 h at 37° C. The sample was then diluted with fresh Luria broth until attaining an optical density of 0.25 for 100 μL on a photospectrometer (Molecular Devices) for a wavelength of 562 nm as measured in a 96-well plate. The optical density, which varies with growth or tube volume, was determined experimentally and set between 1×10^8 and 1.5×10^8 colony forming units (CFUs)/mL for the samples to be pulsed. These samples were then plated at dilutions between 10-6 and 100 (no dilution) depending on the effectiveness of the pulse treatments.
Electric Pulse Treatment Protocol. […] Although no consensus exists on a universal scaling law for applied EP “dose,” we fixed the energy density
[formula] • where N is the number of pulses and τ is the pulse duration. Fixing U for E=40, 30, and 20 kV/cm gave N=250, 445, and 1000 pulses, respectively. Cultures were plated as described below.
Cuvettes were filled with 365 μL of sample (sufficient to just cover the electrodes) and then 250 μL of molecular biology grade mineral oil was placed on top. Keeping the samples on ice upon achieving the required dilution further reduced experimental variability by slowing biological processes, such as fission This facilitated the assessment of the inactivation efficiency of EPs, drugs, and combined treatments.
Tests used the clinically relevant, bactericidal drug tobramycin, which targets the 30S and 50S ribosome complex and has a clinical dose from 4 to 5 μg/mL and rifampicin, which inhibits bacterial […]. Added were 0.2, 2, and 20 μg/mL of each drug to the initial bacterial dilutions prior to pulsing. Samples were immediately placed on ice to minimize cell division and reduce variability. These aliquots were also used to plate individual unpulsed controls for each drug concentration.
Plating. Plating was done on standard disposable tissue culture Petri dishes from VWR (15 cm diameter, 10 mm height) and covered with 10 mL of agar in luria broth (Agar, microbiology tested powder, SIGMA-ALDRICH), which was prepared by adding 20 g of LB lennox (SIGMA-ALDRICH) and 15 g/L of agar to water and then autoclaved.
Plated were samples at dilutions of 10^−6 and 10^−3 for low and high electric field treatments, respectively, and at 10^−6 and 10^−5 for controls All samples containing 100 μL of pulsed or diluted cultures were plated on LB agar plates and counted after overnight incubation at 37° C. […]

The subject of assay [2] is Klebsiella pneumoniae (ATCC BAA-2146 NDM-I positive). The experiment in a line: Inactivation of K. pneumoniae by 300 ns electric pulses and/or antibiotics (CFU plating). It is filed as cell-based. An excerpt:
Except for rifampicin, the five other antibiotics in these examples primarily target gram-positive bacteria and are largely ineffective or not used against gram-negative bacteria in a clinical setting.
A Blumlein pulsed generator consisting of two lines comprised of twelve 2000 pF capacitors connected by inductors produced 300 ns EPs with rise-times of 30 ns and fall-times of 35 ns at a repetition frequency of 1 Hz (12). The EPs were applied to a standard 2 mm gap electroporation cuvette (Dot Scientific R) filled with a solution containing the microorganisms. Used was a Luria broth of 0.5% salinity (5 grams of NaCl/Liter) for the solution to electrically match the resistance of the sample with the impedance of the pulse generator (11Ω) to prevent signal reflection. The voltage measurements were taken using a LeCroy PPE 20 kV high voltage probe with a 1000:1 attenuation recorded by a TeleDyne LeCroy® Waverunner 6 Zi Oscilloscope with a bandwidth of 4 GHZ.
The gram-negative strains included a carbapenem-resistant Escherichia coli (ATCC® BA-2452TM, New Delhi metallo-beta-lactamase NDM-1 positive.), Klebsiella pneumoniae (ATCC® BAA-2146TM NDM-I positive), and a gentamicin, streptomycin and sulfonamide resistant Pseudomonas aeruginosa (BEI Resources NR-31040). Assessed was the gram-positive strain of methicillin resistant Staphylococcus aureus (USA300-0114 strain), which is also resistant to erythromycin and tetracycline. Samples were cultured in Luria broth (LB Broth Lennox, powder microbial growth medium, SIGMA-ALDRICH®) by taking 25 mL of broth in a 50 mL sterile conical tube and incubating in a shaker for 16 h at 37° C. Samples were diluted 50% by adding 25 mL media to the incubated sample as we plated controls for each experiment and condition.
Samples were treated in 2 mm gap cuvettes containing 365 μL of sample between the electrodes, with bio-grade mineral oil added on top of the electrode plates to prevent arcing.
To establish a common baseline for comparing different NSEP parameters, we fixed the energy density U delivered to the cuvettes according to Formula (1) (above). For 300 ns EPs, 500 EPs at 20 kV/cm and 222 EPs at 30 kV/cm delivered the same energy to the sample.
Tissue culture Petri dishes from VWR R (15 cm diameter, 10 mm height) were utilized for plating. Each plate was covered with 15 mL of Luria broth (Agar, microbiology tested powder, SIGMA-ALDRICH®), which was prepared by adding 20 g of LB Lennox (SIGMA-ALDRICH) and 15 g/L of agar to water prior to being autoclaved. The salinity of the agar was the same as the LB (0.5% NaCl) to minimize additional environmental stressors on the bacteria.
Removed was 20 μL from each cuvette and added to 180 μL of PBS in a 96-well dish in triplicate. Each well was then diluted by a ratio of 10:1 five additional times by taking 20 μL of the diluted sample into subsequent wells using multi-channel pipettes (using fresh tips for each dilution). Plated were the six dilutions of each sample two times each by adding 4 μL from each well onto the Petri dish using a multi-channel pipette, which allowed the plating of all three replicates on the same plate to achieve n=6. These plates were then cultured overnight in an incubator at 37° C., and counted the next day.

With `CO[C@H]1/C=C/O[C@@]2(C)Oc3c(C)c(O)c4c(O)c(c(/C=N/N5CCN(C)CC5)c(O)c4c3C2=O)NC(=O)/C(C)=C\C=C\[C@H](C)[C@H](O)[C@@H](C)[C@@H](O)[C@@H](C)[C@H](OC(C)=O)[C@@H]1C` [rifampicin], the “log-reduction of S. aureus” value in assay [1] (20 kV/cm EPs + 0.2 μg/mL), in assay [1] (20 kV/cm EPs + 2 μg/mL) and in assay [1] (20 kV/cm EPs + 20 μg/mL) was 1 log throughout. For the same compound, the “additional inactivation compared to NSEPs alone, K. pneumoniae” value in assay [2] (30 kV/cm NSEPs + 2 μg/mL) and in assay [2] (30 kV/cm NSEPs + 20 μg/mL) was 1 log each time. The “log reduction of K. pneumoniae” value in assay [2] (30 kV/cm NSEPs + 2 μg/mL) was determined as 5 log.
